Measured values published in US12605305B2, “Application of citrate metal salt in endodontic treatment, and formulation obtained by preparation” (KUNMING QINGCHENG HEALTHCARE TECH LTD., priority 2020, dated 2026).
“Also recorded” adds a separate entry of the source. Like-named read-outs stand apart in the source and are kept apart here.

Assays:
[1] = Compatibility of cationic antibacterial agent with EDTA-2Na solution; format: physicochemical; conditions: 10% EDTA-2Na solution mixed 1:1 with 0.2% agent solution, room temperature, dark, 7 days
Method: (§1) Materials to be tested: sodium citrate, potassium citrate, lithium citrate, citric acid, EDTA-2Na.
(§2) Each of the citric acid metal salts to be tested was prepared as a 20% aqueous solution; the citric acid to be tested was prepared as a 20% aqueous solution; the EDTA-2Na to be tested was prepared as a 10% aqueous solution; and the cationic antibacterial agent to be tested was prepared as a 0.2% aqueous solution. Each of the prepared aqueous solutions of citrate metal salt (or citric acid aqueous solutions) was mixed with each of the prepared aqueous solutions of cationic antibacterial agent to be tested at a ratio of 1:1.
(§3) All the mixed solutions were stored at room temperature in dark and left standing for 7 days before observation.

[2] = Compatibility of cationic antibacterial agent with sodium citrate solution; format: physicochemical; conditions: for Phenomenon (compatibility with sodium citrate solution): 20% sodium citrate solution mixed 1:1 with 0.2% agent solution, room temperature, dark, 7 days
Method: as §1, §2, §3

[3] = Compatibility of cationic antibacterial agent with potassium citrate solution; format: physicochemical; conditions: for Phenomenon (compatibility with potassium citrate solution): 20% potassium citrate solution mixed 1:1 with 0.2% agent solution, room temperature, dark, 7 days
Method: as §1, §2, §3

[4] = Compatibility of cationic antibacterial agent with lithium citrate solution; format: physicochemical; conditions: for Phenomenon (compatibility with lithium citrate solution): 20% lithium citrate solution mixed 1:1 with 0.2% agent solution, room temperature, dark, 7 days
Method: as §1, §2, §3

[5] = Compatibility of cationic antibacterial agent with citric acid solution; format: physicochemical; conditions: 20% citric acid solution mixed 1:1 with 0.2% agent solution, room temperature, dark, 7 days
Method: as §1, §2, §3

[6] = cited from earlier work
[7] = Evaluation of the effect of removing smear layer in vitro (SEM of treated root canal specimens)
From the text: Healthy single premolars that need to be extracted for the purpose of clinical orthodontic extraction. Patient age: 14-25 years old. Inclusion criteria: single upright unobstructed root canal, fully developed apical foramen, no near-pulp caries or near-pulp fillings, no history of pulp therapy, no apical root resorption, no root fracture, and other defects, and no periodontal disease.
The soft tissue and calculus around the root of the isolated teeth were removed. The isolated teeth were cleaned and packed for high-temperature and high-pressure steam sterilization. Three sterilized isolated teeth were taken randomly and placed in 10 ml of BHI liquid culture medium, cultured at 37° C. for 24 h, and then taken out. With the naked eye, if the BHI liquid culture medium remains transparent, it is considered that the sterilization effect is reliable. If the BHI liquid culture medium is turbid, it is necessary to re-disinfect all samples and repeat the above steps. After confirmation of successful sterilization, the samples were stored at room temperature for later use.
The pulp chamber of the isolated teeth confirmed to be successfully sterilized was opened using a high-speed hand-piece with an emery ball bit with a diameter of 0.5 mm. After pulp extirpation, the root canal was dredged with an ISO standard #10 stainless steel hand K file, until the file tip that just penetrated the apical foramen was seen. The file was measured for length, from which 0.5 mm was subtracted to establish the working length of the root canal. Then the root canal preparation was performed using a Protaper Universal Engine with Nickel-titanium root canal file to 25/06. […]

[8] = root canal treated for 5 minutes

| Compound | Phenomenon (compatibility with EDTA-2Na solution) [1] | Phenomenon (compatibility with sodium citrate solution) [2] | Phenomenon (compatibility with potassium citrate solution) [3] | Phenomenon (compatibility with lithium citrate solution) [4] | Phenomenon (compatibility with citric acid solution) [5] | pH value ([6]; 5% citric acid solution) | pH value ([6]; 10% citric acid solution) | compatibility with sodium citrate (conclusion in words) [2] | compatibility with potassium citrate (conclusion in words) [3] | compatibility with lithium citrate (conclusion in words) [4] | effect of removing the smear layer [7, 8] | effect of removing the smear layer ([7]; treatment time as per figures (1, 5 and/or 10 min) or not stated) |
| --- | --- | --- | --- | --- | --- | --- | --- | --- | --- | --- | --- | --- |
| CC(=O)O.CC(=O)O.NC(=N\CCCCCC/N=C(N)/N=C(\N)Nc1ccc(Cl)cc1)/N=C(\N)Nc1ccc(Cl)cc1 [chlorhexidine acetate, reference compound] | + | + | + | + | + |  |  |  |  |  |  |  |
| N=C(NCCCCCCNC(=N)NC(=N)Nc1ccc(Cl)cc1)NC(=N)Nc1ccc(Cl)cc1.O=C(O)[C@H](O)[C@@H](O)[C@H](O)[C@H](O)CO.O=C(O)[C@H](O)[C@@H](O)[C@H](O)[C@H](O)CO [chlorhexidine gluconate, reference compound] | + | + | + | + | + |  |  |  |  |  |  |  |
| O=C(O)CC(O)(CC(=O)O)C(=O)O [citric acid] |  |  |  |  |  | 1.93 | 1.91 |  |  |  |  |  |
| CCCCCCCCCCCC[N+](C)(C)Cc1ccccc1.[Br-] [dodecyl dimethyl benzyl ammonium bromide] | − | − | − | − | − |  |  | compatible | compatible | compatible |  |  |
| CCCCCCCCCCCC[N+](C)(C)Cc1ccccc1.[Cl-] [dodecyl dimethyl benzyl ammonium chloride] | − | − | − | − | − |  |  | compatible | compatible | compatible |  |  |
| CCCCCCCCCCCC[N+](C)(C)C.[Cl-] [dodecyl trimethyl ammonium chloride] | − | − | − | − | − |  |  | compatible | compatible | compatible |  |  |
| CCCCCCCCCCCCCCCC[n+]1ccccc1.[Cl-] [hexadecyl pyridinium chloride, reference compound] | − | − | − | − | − |  |  | compatible | compatible | compatible |  |  |
| O=P([O-])([O-])OP(=O)([O-])[O-].[K+].[K+].[K+].[K+] [potassium pyrophosphate] |  |  |  |  |  |  |  |  |  |  | could not improve the effect of the formulation on removing the smear layer |  |
| O=P(O)(O)OP(=O)(O)OP(=O)(O)O [sodium tripolyphosphate] |  |  |  |  |  |  |  |  |  |  | not helpful for sodium citrate to improve the effect of removing the smear layer | cannot be effective in removing the smear layer; also recorded: very poor effect of removing the smear layer |
| N-cocoyl-L-arginine ethyl ester-DL-pyrrolidone carboxylate | + | + | + | + | + |  |  |  |  |  |  |  |
| polydimethyl diallyl ammonium chloride | − | − | − | − | − |  |  | compatible | compatible | compatible |  |  |
| polyhexamethyl guanidine hydrochloride | + | + | + | + | + |  |  |  |  |  |  |  |
| polyhexamethylene biguanide hydrochloride | + | + | + | + | + |  |  |  |  |  |  |  |
